According to patent publication US8404650B2, “Methods of treating cancer with doxazolidine and prodrugs thereof” (priority 2005, dated 2013):
Like-named read-outs stand apart in the source and are kept apart here.

How the values were obtained:
[1] = system: Hep G2; assay: Growth inhibition of Hep G2 liver cancer cells; format: cell-based, human; conditions: for IC50: Homo sapiens, HepG2
Description: (§1) Cell growth inhibition experiments initially focused on MCF-7, MCF-7/Adr, SK-HEP-1, and Hep G2 cancer cells as well as rat cardiomyocytes as a measure of cardiotoxicity and Vero cells (green monkey kidney cells) as an additional measure of normal cell toxicity. […]

[2] = system: MCF-7; assay: Growth inhibition of MCF-7 sensitive breast cancer cells (colony formation, crystal violet); format: cell-based, human; conditions: for IC50: Homo sapiens
Description: (§2) In vitro Activity. […] This cell suspension was dispensed in 200 μL aliquots (1000 cells/well) into the inside wells of 96-well tissue culture plates. Outside wells contained 200 μL of media. […] The medium was replaced with 90 μL of growth medium prior to addition of the drug. Doxaz was dissolved in DMSO at concentrations ranging from 50 μM to 1 mM. […] Serial dilutions (1:3 and 1:10) were made in sterile DMSO to yield seven solutions of decreasing drug concentration at 100× the respective working concentrations. […] Additionally, two lanes were treated with 10 μL of growth medium containing 10% sterile DMSO and one lane was treated with 90 μL of 1.5 M Tris HCl. […]
(§3) Cell growth inhibition experiments initially focused on MCF-7, MCF-7/Adr, SK-HEP-1, and Hep G2 cancer cells as well as rat cardiomyocytes as a measure of cardiotoxicity and Vero cells (green monkey kidney cells) as an additional measure of normal cell toxicity.
(§4) Activity of plasmin-activated prodrugs.
(§5) A more thorough characterization of the growth inhibition of a variety of cancer cells as well as rat cardiomyocytes by Formula IV (aFK-PABC-Doxaz) was evaluated in comparison with inhibition of growth by Doxaz, Dox and aFK-PABC-Dox. Cells were treated with drug for 3 h and colony growth was measured at 3 to 5 days when cells reached about 80% confluence. […] The breast cancer cell lines represent the multi-drug resistant (MDR) phenotype with MCF-7/Adr cells and a cell line that is transfected with the gene for urokinase plasminogen activator (uPA), the primary enzyme responsible for cleavage of plasminogen to plasmin. Rat cardiomyocytes served as a model for comparison of drug cardiotoxicity.

[3] = system: MCF-7/Adr; assay: Growth inhibition of multidrug resistant MCF-7/Adr breast cancer cells (crystal violet); format: cell-based; conditions: for IC50: Homo sapiens, NCI/ADR-RES
Description: as §2, §3, §4, §5

[4] = system: SK-HEP-1; assay: Growth inhibition of SK-HEP-1 liver cancer cells; format: cell-based, human; conditions: for IC50: Homo sapiens, SK-HEP1
Description: as §1

[5] = system: DU-145; assay: Growth inhibition of DU-145 prostate cancer cells; format: cell-based; conditions: for IC50: Homo sapiens
Description: as §2
(§6) SHP-77 small cell lung cancer cells were also of interest because they express modest amounts of both enzymes. Inhibition of the growth of cardiomyocytes was used as a measure of cardiotoxicity, and inhibition of the growth of Vero cells, green monkey kidney cells, was again used as another measure of toxicity to normal cells.
as §5, with “Cells were treated with drug for 3 h and colony growth was measured at 3 to 5 days when cells reached about 80% confluence.” left out

[6] = system: cancer cells; assay: Cancer cell growth inhibition, statements over several or unnamed cell lines; format: cell-based
Description: (§7) In vitro Activity. […] This cell suspension was dispensed in 200 μL aliquots (1000 cells/well) into the inside wells of 96-well tissue culture plates. Outside wells contained 200 μL of media. […] The medium was replaced with 90 μL of growth medium prior to addition of the drug. Doxaz was dissolved in DMSO at concentrations ranging from 50 μM to 1 mM. […] Serial dilutions (1:3 and 1:10) were made in sterile DMSO to yield seven solutions of decreasing drug concentration at 100× the respective working concentrations. […] Additionally, two lanes were treated with 10 μL of growth medium containing 10% sterile DMSO and one lane was treated with 90 μL of 1.5 M Tris HCl. The cells were incubated at 37° C. for 3 h, at which time the drug solutions were replaced with 200 μL of fresh growth medium.
as §5

[7] = system: Vero cells; assay: Growth inhibition of Vero cells as a measure of normal cell toxicity (MTT); format: cell-based, green monkey; conditions: for IC50: Chlorocebus sabaeus, Vero
Description: as §3, §6

[8] = system: MDA-MB-435; assay: Growth inhibition of MDA-MB-435 breast cancer cells; format: cell-based; conditions: Homo sapiens
Description: as §7, §4

[9] = system: SHP-77; assay: Growth inhibition of SHP-77 small cell lung cancer cells; format: cell-based; conditions: 24 h drug treatment, crystal violet
Description: as §6

[10] = read-out: IC50 value for cell growth inhibition, MCF-7/Adr
[11] = 3 h drug treatment, crystal violet, read-out: Growth inhibition IC50, Hep G2, 3 h (converted)
[12] = 3 h drug treatment, read-out: Growth inhibition IC50, Vero, 3 h (converted)
[13] = 24 h drug treatment, read-out: Growth inhibition IC50, Vero, 24 h (converted)
[14] = 3 h, read-out: Growth inhibition IC50, MCF-7/Adr, 3 h
[15] = 3 h drug treatment, crystal violet, read-out: Growth inhibition IC50, SK-HEP-1, 3 h (converted)
[16] = MDA-MB-435, read-out: IC50 MDA-MB-435, top line of the cell
[17] = 3 h, read-out: IC50 MCF-7/Adr + plasmin
[18] = DU-145, read-out: IC50 DU-145, top line of the cell
[19] = 24 h drug treatment, crystal violet

For `COc1cccc2c1C(=O)c1c(O)c3c(c(O)c1C2=O)C[C@@](O)(C(=O)CO)C[C@@H]3OC1CC2C(OCN2CN2COC3C(C)OC(O[C@H]4C[C@](O)(C(=O)CO)Cc5c(O)c6c(c(O)c54)C(=O)c4c(OC)cccc4C6=O)CC32)C(C)O1` (stereo partly shown) [DoxF, Doxoform, reference compound], the “IC50 lower than doxorubicin, Hep-G2” value [1] was “more than 25 fold”, the IC50 ([2]; MCF7, 3 h, read-out: IC50 MCF-7) was 2 nM and the IC50 ([3]; 3 h, read-out: IC50 MCF-7/Adr) was 1 nM. For the same compound, the IC50 [3, 10] was roughly 2 nM, the “IC50 lower than doxorubicin, SK-HEP-1” value [4] was “more than 25 fold” and the IC50 ([5]; DU-145, 3 h, read-out: IC50 DU-145) was 3 nM.

`COc1cccc2c1C(=O)c1c(O)c3c(c(O)c1C2=O)C[C@@](O)(C(=O)CO)C[C@@H]3O[C@H]1C[C@@H]2NCO[C@@H]2[C@H](C)O1` [Doxaz, Doxazolidine] was tested, and the “More toxic than Doxorubicin to multidrug-resistant cancer cells” value ([6]; variety of multidrug-resistant cancer cells) was 500-10,000 fold, the IC50 [1, 11] was 10 nM and the IC50 [7, 12] was 6.31 nM. The IC50 [7, 13] was 7.94 nM, the IC50 ([8]; MDA-MB-435, 3 h drug treatment, growth at 5 days, read-out: IC50 MDA-MB-435) was 7 ± 0.3 nM and the IC50 ([2]; MCF7, 3 h, read-out: Growth inhibition IC50, MCF-7, 3 h) was 3.16 nM. The IC50 ([2]; MCF7, read-out: IC50 MCF-7) was 3 ± 0.2 nM, the IC50 [3, 14] was 3.16 nM and the IC50 ([3]; read-out: IC50 MCF-7/Adr) was 3 ± 0.2 nM. It also gave an IC50 [3, 10] of roughly 2 nM, an IC50 [4, 15] of 3.98 nM and an IC50 ([5]; DU-145, read-out: IC50 DU-145) of 4 ± 0.6 nM.

With `COc1cccc2c1C(=O)c1c(O)c3c(c(O)c1C2=O)C[C@@](O)(C(=O)CO)C[C@@H]3O[C@H]1C[C@H](N)[C@H](O)[C@H](C)O1` [Doxorubicin, reference compound] the “Effect of added plasmin on activity” value ([6]; 0.01 unit/mL of plasmin) was “no effect”, the IC50 ([9]; Homo sapiens, SHP77) was 126 nM and the IC50 [1, 11] was 200 nM. The IC50 ([1]; 24 h drug treatment, crystal violet, read-out: Growth inhibition IC50, Hep G2, 24 h (converted)) was 31.6 nM, the IC50 [7, 12] was 1000 nM and the IC50 [7, 13] was 501 nM. It also gave an IC50 ([8]; MDA-MB-435, read-out: IC50 MDA-MB-435) of 150 ± 14 nM, an IC50 [8, 16] of 150 nM and an IC50 ([2]; MCF7, 3 h, read-out: Growth inhibition IC50, MCF-7, 3 h, 3 h drug treatment, crystal violet) of 316 nM. The IC50 ([2]; MCF7, 3 h, read-out: IC50 MCF-7 + plasmin, + plasmin (15 μg/ml)) was 300 nM, the IC50 ([2]; MCF7, 24 h, read-out: Growth inhibition IC50, MCF-7, 24 h, 24 h drug treatment, crystal violet) was 12.6 nM and the IC50 ([2]; MCF7, read-out: IC50 MCF-7, 3 h drug treatment, growth at 5 days) was 200 ± 26 nM. It also gave an IC50 ([2]; MCF7, read-out: IC50 MCF-7, no plasmin or aprotinin added) of 300 nM, an IC50 [3, 14] of 6310 nM and an IC50 [3, 17] of 20000 nM. For the same compound, the IC50 ([3]; 24 h, read-out: Growth inhibition IC50, MCF-7/Adr, 24 h) was 2510 nM, the IC50 ([3]; read-out: IC50 MCF-7/Adr) was 10000 nM and the IC50 [4, 15] was 100 nM. The IC50 ([4]; 24 h drug treatment, crystal violet, read-out: Growth inhibition IC50, SK-HEP-1, 24 h (converted)) was 50.1 nM, the IC50 ([5]; DU-145, 24 h, read-out: Cell growth inhibition IC50, DU-145) was 31.6 nM and the IC50 ([5]; DU-145, read-out: IC50 DU-145) was 240 nM. It also gave an IC50 [5, 18] of 300 nM.

In the case of `COc1cccc2c1C(=O)c1c(O)c3c(c(O)c1C2=O)C[C@@](O)(C(=O)CO)C[C@@H]3O[C@H]1C[C@H]2[C@H](OCN2C(=O)OCc2ccc(NC(=O)[C@H](CCCCN)NC(=O)[C@H](Cc3ccccc3)NC(=O)[C@@H](C)N)cc2)[C@H](C)O1` [Formula IV, D-Ala-L-Phe-L-Lys-p-aminobenzyloxycarbonyl-Doxaz], the “Increase of activity on addition of plasminogen” value ([6]; 0.01 unit/mL plasminogen, on average) is reported as 0.3 log, the “Growth inhibition better than aFK-PABA-Dox” value ([6]; most of the cancer cells, 3 h treatment) is reported as no less than 0.5 log and the IC50 ([6]; read-out: Cancer cell growth inhibition IC50 in the presence of plasmin) is reported as 5 nM. For the same compound, the IC50 [8, 16] was 240 nM, the IC50 ([8]; MDA-MB-435, + plasmin, second stacked value, read-out: IC50 MDA-MB-435 + plasmin) was 40 nM and the IC50 ([2]; MCF7, 3 h, read-out: IC50 MCF-7 + plasmin) was 5 nM. It also gave an IC50 ([2]; MCF7, read-out: IC50 MCF-7) of 50 nM, an IC50 [3, 17] of 10 nM and an IC50 ([3]; read-out: IC50 MCF-7/Adr) of 100 nM. For the same compound, the IC50 ([5]; DU-145, read-out: IC50 DU-145 + plasmin) was 6 nM and the IC50 [5, 18] was 160 nM.

For `CCCCCOC(=O)Nc1ccc(COC(=O)N2COC3C(C)OC(OC4CC(O)(C(=O)CO)Cc5c(O)c6c(c(O)c54)C(=O)c4c(OC)cccc4C6=O)CC32)cc1` (stereo not shown) [Pentyl PABC-Doxaz, Pentyl 4-(N-doxazolidinylcarbonyloxymethyl)phenylcarbamate], the “Cell growth inhibition IC50, SHP-77” value [9] was −7.3 ± 0.1 log of molar concentrations, the “Growth inhibition IC50, Hep G2, 24 h” value [1, 19] was −7.3 ± 0.2 log of the molar concentration and the “Growth inhibition IC50, Vero, 24 h” value ([7]; 24 h drug treatment) was −6.0 ± 0.04 log of the molar concentration. For the same compound, the “Growth inhibition IC50, MCF-7, 24 h” value [2, 19] was −5.6 ± 0.3 log of the molar concentration, the “Growth inhibition IC50, MCF-7/Adr, 24 h” value [3, 19] was −6.5 ± 0.06 log of the molar concentration and the “Growth inhibition IC50, SK-HEP-1, 24 h” value [4, 19] was −6.0 ± 0.06 log of the molar concentration. The “Cell growth inhibition IC50, DU-145” value [5, 19] was −6.7 ± 0.07 log of molar concentrations.
